Data taken from ChEMBL document CHEMBL5226343, “Structure-Activity Relationship of USP5 Inhibitors” (J Med Chem, 2021).

Key:
[1] = target: T1, Protein deacetylase HDAC6 (Homo sapiens, UniProt Q9UBN7)
T1 sequence (Q9UBN7 whole entry): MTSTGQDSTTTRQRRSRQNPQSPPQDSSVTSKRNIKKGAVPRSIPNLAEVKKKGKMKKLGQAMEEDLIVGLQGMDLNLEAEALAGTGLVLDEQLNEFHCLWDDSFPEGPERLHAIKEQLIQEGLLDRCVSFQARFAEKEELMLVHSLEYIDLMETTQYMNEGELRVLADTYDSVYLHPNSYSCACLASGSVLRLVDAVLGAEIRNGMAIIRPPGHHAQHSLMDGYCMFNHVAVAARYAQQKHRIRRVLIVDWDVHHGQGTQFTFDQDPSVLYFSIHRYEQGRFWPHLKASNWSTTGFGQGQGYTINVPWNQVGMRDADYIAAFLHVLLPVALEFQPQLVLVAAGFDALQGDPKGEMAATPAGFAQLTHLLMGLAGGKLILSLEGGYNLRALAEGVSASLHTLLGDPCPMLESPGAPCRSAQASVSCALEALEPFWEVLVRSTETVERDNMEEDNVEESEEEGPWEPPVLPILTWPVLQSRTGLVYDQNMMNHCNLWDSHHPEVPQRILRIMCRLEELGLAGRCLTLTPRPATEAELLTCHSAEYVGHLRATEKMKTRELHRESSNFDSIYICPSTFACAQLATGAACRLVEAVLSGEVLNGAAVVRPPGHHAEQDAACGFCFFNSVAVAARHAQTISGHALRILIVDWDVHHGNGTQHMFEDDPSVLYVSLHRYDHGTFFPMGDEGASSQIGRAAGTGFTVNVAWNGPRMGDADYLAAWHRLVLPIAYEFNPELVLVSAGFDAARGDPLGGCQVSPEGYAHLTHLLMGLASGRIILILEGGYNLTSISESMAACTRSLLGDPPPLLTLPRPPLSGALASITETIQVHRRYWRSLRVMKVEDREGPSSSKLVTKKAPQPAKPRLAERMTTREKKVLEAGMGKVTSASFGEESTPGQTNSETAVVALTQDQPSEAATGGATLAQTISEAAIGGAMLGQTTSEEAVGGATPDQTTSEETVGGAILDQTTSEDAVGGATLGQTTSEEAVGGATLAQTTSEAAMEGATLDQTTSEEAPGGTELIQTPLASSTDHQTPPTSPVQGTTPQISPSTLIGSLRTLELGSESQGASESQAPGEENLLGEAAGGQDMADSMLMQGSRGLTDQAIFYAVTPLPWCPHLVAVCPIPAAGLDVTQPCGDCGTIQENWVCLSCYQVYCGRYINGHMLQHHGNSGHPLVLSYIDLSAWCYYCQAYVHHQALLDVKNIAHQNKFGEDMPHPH

[2] = target: T2, Ubiquitin carboxyl-terminal hydrolase 2 (Homo sapiens, UniProt O75604); assay: Inhibition of USP2 (unknown origin)
T2 sequence (O75604 whole entry): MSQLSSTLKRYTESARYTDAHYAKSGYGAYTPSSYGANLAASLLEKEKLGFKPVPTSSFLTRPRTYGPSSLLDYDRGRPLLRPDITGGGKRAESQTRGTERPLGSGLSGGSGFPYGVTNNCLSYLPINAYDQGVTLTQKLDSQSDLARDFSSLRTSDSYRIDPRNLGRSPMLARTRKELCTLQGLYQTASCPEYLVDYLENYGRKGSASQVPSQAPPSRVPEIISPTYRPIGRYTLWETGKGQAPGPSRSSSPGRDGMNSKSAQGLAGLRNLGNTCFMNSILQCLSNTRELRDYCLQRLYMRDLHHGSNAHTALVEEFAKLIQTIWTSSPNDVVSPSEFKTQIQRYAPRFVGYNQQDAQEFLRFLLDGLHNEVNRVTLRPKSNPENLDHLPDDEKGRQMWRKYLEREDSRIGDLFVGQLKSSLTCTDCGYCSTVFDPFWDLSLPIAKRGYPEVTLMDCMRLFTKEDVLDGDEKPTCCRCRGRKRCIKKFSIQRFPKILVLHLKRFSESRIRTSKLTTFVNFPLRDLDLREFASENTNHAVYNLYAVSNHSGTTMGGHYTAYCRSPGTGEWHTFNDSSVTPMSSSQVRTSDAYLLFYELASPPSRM

[3] = target: T3, Ubiquitin carboxyl-terminal hydrolase 4 (Homo sapiens, UniProt Q13107); assay: Inhibition of USP4 (unknown origin)
T3 sequence (Q13107 whole entry): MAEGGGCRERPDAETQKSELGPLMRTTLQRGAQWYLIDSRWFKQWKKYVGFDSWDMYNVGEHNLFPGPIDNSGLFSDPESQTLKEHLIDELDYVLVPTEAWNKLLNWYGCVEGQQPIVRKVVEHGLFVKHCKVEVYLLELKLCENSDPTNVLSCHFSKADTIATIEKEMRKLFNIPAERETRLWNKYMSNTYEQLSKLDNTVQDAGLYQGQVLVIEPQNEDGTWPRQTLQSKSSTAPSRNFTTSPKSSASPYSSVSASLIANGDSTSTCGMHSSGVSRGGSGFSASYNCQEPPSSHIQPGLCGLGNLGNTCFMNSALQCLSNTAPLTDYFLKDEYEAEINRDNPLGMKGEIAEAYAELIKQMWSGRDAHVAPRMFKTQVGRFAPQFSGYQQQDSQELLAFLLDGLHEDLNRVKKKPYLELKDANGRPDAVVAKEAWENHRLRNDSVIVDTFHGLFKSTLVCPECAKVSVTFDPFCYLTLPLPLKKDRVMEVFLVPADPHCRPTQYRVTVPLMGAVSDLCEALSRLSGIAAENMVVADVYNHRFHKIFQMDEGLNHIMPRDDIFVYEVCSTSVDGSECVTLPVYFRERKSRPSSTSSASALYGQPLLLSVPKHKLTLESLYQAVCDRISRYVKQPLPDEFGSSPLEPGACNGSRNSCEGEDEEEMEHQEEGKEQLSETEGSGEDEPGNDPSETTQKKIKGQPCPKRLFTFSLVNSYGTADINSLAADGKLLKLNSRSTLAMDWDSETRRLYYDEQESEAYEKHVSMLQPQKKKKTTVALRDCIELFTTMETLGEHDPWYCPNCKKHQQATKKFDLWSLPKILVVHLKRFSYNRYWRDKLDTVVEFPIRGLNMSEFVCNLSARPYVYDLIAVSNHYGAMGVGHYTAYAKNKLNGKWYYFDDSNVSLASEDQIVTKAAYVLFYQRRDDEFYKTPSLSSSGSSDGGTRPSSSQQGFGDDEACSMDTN

[4] = target: T4, Ubiquitin carboxyl-terminal hydrolase 5 (Homo sapiens, UniProt P45974); assay: Inhibition of USP5 (unknown origin)
T4 sequence (P45974 whole entry): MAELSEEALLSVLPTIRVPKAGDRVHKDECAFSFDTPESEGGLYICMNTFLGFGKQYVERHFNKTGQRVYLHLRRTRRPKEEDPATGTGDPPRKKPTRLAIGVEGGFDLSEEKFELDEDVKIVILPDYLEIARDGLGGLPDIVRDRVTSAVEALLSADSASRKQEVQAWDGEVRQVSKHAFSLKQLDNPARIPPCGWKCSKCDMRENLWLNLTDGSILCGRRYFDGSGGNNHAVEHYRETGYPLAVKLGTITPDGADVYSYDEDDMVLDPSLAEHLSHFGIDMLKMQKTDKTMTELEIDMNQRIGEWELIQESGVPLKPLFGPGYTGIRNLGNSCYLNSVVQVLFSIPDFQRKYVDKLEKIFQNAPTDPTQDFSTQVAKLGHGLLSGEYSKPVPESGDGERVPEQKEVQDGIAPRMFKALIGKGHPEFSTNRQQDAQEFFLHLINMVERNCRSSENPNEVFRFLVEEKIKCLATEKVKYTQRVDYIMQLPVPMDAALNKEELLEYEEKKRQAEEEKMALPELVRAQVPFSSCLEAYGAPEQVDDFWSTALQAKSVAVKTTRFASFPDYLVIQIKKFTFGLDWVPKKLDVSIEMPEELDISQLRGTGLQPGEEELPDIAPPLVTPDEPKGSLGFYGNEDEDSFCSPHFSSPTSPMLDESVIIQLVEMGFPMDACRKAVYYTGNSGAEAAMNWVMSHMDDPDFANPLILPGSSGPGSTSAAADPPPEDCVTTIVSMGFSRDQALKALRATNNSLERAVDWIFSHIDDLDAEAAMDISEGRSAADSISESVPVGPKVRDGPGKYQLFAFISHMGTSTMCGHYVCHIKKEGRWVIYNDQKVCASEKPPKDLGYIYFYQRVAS

[5] = target: Ubiquitin carboxyl-terminal hydrolase 7 (Homo sapiens, UniProt Q93009); assay: Inhibition of USP7 (unknown origin)
[6] = target: T5, Ubiquitin carboxyl-terminal hydrolase 8 (Homo sapiens, UniProt P40818); assay: Inhibition of USP8 (unknown origin)
T5 sequence (P40818 whole entry): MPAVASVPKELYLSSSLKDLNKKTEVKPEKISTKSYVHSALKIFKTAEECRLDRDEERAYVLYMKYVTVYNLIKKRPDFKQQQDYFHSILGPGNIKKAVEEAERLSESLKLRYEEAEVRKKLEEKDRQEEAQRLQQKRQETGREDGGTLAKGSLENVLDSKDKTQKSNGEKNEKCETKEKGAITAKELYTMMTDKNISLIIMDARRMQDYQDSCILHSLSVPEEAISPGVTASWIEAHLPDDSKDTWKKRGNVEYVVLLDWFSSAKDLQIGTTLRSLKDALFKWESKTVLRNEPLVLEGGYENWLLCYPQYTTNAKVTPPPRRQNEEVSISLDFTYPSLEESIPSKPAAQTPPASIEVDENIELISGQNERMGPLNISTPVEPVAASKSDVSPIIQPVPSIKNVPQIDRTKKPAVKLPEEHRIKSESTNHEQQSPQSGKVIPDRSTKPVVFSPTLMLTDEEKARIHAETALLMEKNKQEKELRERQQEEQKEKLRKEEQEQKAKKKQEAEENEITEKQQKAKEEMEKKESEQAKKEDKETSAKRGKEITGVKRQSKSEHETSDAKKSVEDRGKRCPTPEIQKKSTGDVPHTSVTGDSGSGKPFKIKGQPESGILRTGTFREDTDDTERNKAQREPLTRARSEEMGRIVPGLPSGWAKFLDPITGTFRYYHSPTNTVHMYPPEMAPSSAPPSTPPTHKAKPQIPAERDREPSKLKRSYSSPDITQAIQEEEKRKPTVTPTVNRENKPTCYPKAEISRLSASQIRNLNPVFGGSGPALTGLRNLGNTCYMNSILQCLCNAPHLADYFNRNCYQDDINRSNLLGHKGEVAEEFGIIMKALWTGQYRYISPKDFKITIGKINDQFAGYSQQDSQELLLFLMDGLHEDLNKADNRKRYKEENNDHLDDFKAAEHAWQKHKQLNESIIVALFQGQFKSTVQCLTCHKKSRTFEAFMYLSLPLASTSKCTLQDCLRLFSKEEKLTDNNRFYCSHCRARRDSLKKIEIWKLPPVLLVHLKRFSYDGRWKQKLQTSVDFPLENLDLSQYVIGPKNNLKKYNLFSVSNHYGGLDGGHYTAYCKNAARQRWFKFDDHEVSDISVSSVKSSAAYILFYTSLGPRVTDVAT

[7] = target: Ubiquitin carboxyl-terminal hydrolase 9X (Homo sapiens) (UniProt Q93008); assay: Inhibition of USP9X (unknown origin) at 2.5 uM
[8] = target: Ubiquitin carboxyl-terminal hydrolase isozyme L1 (Homo sapiens) (UniProt P09936); assay: Inhibition of UCH-L1 (unknown origin) at 2.5 uM
[9] = target: T6, Ubiquitin carboxyl-terminal hydrolase 5 (Homo sapiens) (UniProt P45974); assay: Inhibition of USP5 (unknown origin) at 2.5 uM
T6 sequence (whole entry): T4 sequence (P45974 whole entry)

[10] = Metabolic stability of the compound in human liver microsomes assessed as parent compound remaining at 1 uM measured for 60 mins in presence of NADPH regenerating system by LC/MS analysis; assay type: ADME, Microsome; settings: read-out: Stability
[11] = Metabolic stability of the compound in CD-1 mouse liver microsomes assessed as parent compound remaining at 1 uM measured after 60 mins in presence of NADPH regenerating system by LC/MS analysis; assay type: ADME, Microsome; settings: read-out: Stability

Chain of Ubiquitin carboxyl-terminal hydrolase 9X (Homo sapiens) (Q93008 whole entry): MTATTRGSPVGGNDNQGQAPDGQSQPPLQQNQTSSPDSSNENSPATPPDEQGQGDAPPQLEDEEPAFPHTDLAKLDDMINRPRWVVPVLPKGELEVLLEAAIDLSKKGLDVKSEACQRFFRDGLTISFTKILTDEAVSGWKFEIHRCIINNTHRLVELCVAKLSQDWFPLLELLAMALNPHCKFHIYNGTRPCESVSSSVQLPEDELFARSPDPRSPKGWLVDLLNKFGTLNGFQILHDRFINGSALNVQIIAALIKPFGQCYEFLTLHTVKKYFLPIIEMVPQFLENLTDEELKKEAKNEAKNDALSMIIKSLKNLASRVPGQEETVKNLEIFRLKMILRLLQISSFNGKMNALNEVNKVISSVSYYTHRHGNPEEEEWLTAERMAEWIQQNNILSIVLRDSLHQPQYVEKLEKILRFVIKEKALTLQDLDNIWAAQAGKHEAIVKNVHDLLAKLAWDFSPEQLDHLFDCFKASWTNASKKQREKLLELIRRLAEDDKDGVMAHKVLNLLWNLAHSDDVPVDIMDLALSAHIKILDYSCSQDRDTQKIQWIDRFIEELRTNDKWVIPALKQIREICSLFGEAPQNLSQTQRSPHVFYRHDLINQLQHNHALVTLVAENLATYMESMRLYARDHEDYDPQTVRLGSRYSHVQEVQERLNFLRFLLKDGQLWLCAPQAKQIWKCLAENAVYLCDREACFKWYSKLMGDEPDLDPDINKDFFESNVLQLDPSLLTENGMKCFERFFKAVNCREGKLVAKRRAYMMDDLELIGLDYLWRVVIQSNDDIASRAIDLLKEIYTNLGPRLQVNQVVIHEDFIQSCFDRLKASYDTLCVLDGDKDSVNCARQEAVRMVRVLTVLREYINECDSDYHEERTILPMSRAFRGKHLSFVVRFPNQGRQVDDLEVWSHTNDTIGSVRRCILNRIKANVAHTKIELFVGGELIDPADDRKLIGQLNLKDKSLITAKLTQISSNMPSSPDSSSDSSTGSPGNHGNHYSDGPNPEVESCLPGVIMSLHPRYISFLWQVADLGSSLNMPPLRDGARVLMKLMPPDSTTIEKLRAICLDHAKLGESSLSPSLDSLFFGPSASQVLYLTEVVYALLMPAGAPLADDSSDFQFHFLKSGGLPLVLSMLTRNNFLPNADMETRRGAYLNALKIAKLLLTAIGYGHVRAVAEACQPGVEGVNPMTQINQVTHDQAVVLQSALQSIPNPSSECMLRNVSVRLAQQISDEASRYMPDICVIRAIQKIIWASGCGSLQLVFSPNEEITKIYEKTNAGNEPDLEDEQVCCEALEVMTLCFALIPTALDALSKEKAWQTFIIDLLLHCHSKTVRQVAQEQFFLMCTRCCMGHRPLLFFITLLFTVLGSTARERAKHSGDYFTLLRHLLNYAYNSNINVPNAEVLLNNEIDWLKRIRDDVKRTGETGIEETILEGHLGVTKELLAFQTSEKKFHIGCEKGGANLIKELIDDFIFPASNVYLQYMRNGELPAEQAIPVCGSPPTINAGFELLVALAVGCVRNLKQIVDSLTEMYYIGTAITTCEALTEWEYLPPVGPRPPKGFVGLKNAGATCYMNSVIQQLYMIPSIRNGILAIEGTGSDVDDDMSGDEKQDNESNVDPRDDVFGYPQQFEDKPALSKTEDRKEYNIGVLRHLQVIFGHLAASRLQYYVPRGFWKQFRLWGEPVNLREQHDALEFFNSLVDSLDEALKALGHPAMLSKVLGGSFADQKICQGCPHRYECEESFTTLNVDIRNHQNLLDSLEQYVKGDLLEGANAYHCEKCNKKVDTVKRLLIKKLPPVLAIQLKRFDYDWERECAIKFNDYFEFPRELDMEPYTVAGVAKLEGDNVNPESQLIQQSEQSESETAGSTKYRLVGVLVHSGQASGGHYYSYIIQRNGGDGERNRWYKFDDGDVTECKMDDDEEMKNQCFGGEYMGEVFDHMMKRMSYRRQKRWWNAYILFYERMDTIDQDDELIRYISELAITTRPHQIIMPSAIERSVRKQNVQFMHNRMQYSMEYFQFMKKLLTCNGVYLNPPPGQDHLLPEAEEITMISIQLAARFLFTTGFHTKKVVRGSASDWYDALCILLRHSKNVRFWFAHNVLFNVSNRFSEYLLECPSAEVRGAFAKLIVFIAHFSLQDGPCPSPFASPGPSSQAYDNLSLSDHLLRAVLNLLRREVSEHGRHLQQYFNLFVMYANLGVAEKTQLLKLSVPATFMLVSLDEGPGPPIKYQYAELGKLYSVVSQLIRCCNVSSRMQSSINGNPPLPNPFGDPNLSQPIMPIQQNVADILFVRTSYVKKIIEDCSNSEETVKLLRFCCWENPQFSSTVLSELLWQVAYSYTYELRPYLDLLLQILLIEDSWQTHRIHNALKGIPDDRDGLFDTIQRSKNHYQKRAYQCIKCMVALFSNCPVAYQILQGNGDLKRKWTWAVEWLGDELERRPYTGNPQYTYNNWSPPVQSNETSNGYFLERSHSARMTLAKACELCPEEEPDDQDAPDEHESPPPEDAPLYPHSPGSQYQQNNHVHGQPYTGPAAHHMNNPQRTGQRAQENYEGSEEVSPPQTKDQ
Chain of Ubiquitin carboxyl-terminal hydrolase 7 (Q93009 whole entry): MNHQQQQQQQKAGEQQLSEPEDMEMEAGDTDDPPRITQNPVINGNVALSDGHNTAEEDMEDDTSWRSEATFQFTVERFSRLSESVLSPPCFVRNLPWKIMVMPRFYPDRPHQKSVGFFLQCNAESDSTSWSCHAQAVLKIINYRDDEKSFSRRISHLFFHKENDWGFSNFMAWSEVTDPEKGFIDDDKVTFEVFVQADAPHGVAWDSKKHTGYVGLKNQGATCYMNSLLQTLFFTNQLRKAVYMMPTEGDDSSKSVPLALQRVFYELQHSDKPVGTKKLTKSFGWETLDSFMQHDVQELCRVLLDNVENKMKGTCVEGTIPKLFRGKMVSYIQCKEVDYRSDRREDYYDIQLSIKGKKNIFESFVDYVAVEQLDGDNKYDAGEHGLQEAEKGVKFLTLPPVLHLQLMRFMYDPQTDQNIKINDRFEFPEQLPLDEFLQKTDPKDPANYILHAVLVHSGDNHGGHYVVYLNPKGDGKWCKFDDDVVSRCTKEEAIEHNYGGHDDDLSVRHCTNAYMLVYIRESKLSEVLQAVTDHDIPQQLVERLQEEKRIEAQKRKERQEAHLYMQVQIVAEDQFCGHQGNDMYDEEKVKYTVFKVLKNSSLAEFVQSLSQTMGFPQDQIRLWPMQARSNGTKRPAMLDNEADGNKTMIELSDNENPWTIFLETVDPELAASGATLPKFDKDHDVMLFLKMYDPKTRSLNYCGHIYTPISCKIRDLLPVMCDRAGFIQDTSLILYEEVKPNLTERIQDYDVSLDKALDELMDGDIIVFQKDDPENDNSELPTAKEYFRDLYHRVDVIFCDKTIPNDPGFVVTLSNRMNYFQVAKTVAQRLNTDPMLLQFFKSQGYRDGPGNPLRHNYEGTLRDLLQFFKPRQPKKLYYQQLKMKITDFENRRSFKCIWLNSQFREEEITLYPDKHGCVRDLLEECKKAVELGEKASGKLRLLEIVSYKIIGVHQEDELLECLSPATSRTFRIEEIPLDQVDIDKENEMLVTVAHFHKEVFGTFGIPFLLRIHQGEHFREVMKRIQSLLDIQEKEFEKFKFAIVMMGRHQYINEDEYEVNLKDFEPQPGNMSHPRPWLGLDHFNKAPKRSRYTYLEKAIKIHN
Chain of Ubiquitin carboxyl-terminal hydrolase isozyme L1 (Homo sapiens) (P09936 whole entry, looked up): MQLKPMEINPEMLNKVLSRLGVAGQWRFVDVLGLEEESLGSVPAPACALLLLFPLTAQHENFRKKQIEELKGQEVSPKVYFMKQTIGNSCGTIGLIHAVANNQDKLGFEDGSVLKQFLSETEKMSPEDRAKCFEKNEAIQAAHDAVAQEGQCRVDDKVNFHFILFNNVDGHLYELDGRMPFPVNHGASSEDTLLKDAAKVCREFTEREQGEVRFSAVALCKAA

SMILES: Cn1cc(S(=O)(=O)N2CCC(c3ccccc3)CC2)cc1C(=O)NCC(=O)O
- Kd [1]: > 1000 µM

SMILES: O=C(O)CNC(=O)c1cccc(S(=O)(=O)N2CCC(c3ccccc3)CC2)c1
- Kd [1]: > 440 µM

SMILES: N#CSc1cc(SC#N)c(N)nc1N
- EC50 [2]: 7.2 µM
- EC50 [3]: 3.9 µM
- EC50 [4]: 8.6 µM
- EC50 [5]: 6.9 µM
- EC50 [6]: 4.9 µM

SMILES: O=C(O)CNC(=O)c1ccc(S(=O)(=O)N2CCC(N3CCCC3)CC2)cc1
- Kd [1]: 520 µM

SMILES: CCC[C@H](NC(=O)/C(C#N)=C/c1cccc(Br)n1)c1ccccc1
- inhibition [7]: 45%
- inhibition [8]: 30%
- inhibition [9]: 50%

SMILES: O=C(O)CNC(=O)c1ccc(S(=O)(=O)N2CCC3(CC2)OCc2ccccc23)cc1
- Kd [1]: 440 µM

SMILES: O=C(O)CNC(=O)c1ccc(S(=O)(=O)N2CC=C(c3ccccc3)CC2)cc1
- Kd [1]: 340 µM

SMILES: O=C(O)CNC(=O)c1ccc(S(=O)(=O)N2CCC(c3ccccc3)C2)cc1 (stereo not drawn)
- Kd [1]: > 1000 µM

SMILES: O=C(O)CNC(=O)c1ccc(S(=O)(=O)N2Cc3ccccc3C2)cc1
- Kd [1]: > 480 µM

SMILES: CN1CCN(C2CCN(S(=O)(=O)c3ccc(C(=O)NCC(=O)O)cc3)CC2)CC1
- Kd [1]: 370 µM

SMILES: CN1CCC2(CC1)CCN(S(=O)(=O)c1ccc(C(=O)NCC(=O)O)cc1)CC2
- Kd [1]: 410 µM

SMILES: Cc1cc(S(=O)(=O)N2CCC(c3ccccc3)CC2)ccc1C(=O)NCC(=O)O
- Kd [1]: 160 µM

SMILES: O=C(O)CNC(=O)c1ccc(S(=O)(=O)N2CCC(N3CCOCC3)CC2)cc1
- Kd [1]: > 1000 µM

SMILES: O=C(O)CNC(=O)c1ccc(S(=O)(=O)N2CCc3ccccc3C2)cc1
- Kd [1]: 290 µM

SMILES: O=C(O)CNC(=O)c1ccc(S(=O)(=O)N2CCC(c3ccccc3)CC2)cc1Cl
- Kd [1]: 150 µM

SMILES: CN(C)C1CCN(S(=O)(=O)c2ccc(C(=O)NCC(=O)O)cc2)CC1
- Kd [1]: > 760 µM

SMILES: CN1CCC(NS(=O)(=O)c2ccc(C(=O)NCC(=O)O)cc2)CC1
- Kd [1]: > 1000 µM

SMILES: O=C(O)CNC(=O)c1ccc(S(=O)(=O)N2CCC(c3ccc(Cl)cc3)CC2)cn1
- remaining at 1 h, 1 µM [10]: > 90%
- remaining at 1 h, 1 µM [11]: > 90%

SMILES: O=C(O)CNC(=O)c1ccc(S(=O)(=O)N2CCCC(c3ccccc3)CC2)cc1 (stereo not drawn)
- Kd [1]: > 640 µM

SMILES: O=C(O)CNC(=O)c1ccc(S(=O)(=O)N2CCN(c3ccccc3)CC2)cc1
- Kd [1]: > 480 µM

SMILES: O=C(O)CNC(=O)c1ccc(S(=O)(=O)N2CC(c3ccccc3)C2)cc1
- Kd [1]: > 1000 µM
